In patent publication US20020058795A1, “HYDROPHOBIC GLYCOSYLAMINE DERIVATIVES, COMPOSITIONS, AND METHODS FOR USE” (priority 1997, published 2002):

Experiments:
[1] = system: established cell lines and primary neuronal cultures; settings: cited from earlier work
tumors = test: In vivo anti-tumor efficacy, intratumoral IL-2 plasmid compositions; set-up: species or system mice; settings: for growth of tumors in mice: compositions with IL-2 plasmid DNA and DOPE, given directly into the tumor; for size of tumors, average: with DNA and DOPE; for size of tumors, average / reduction of growth rates of tumors: 1:2 -/+ charge ratio; for reduction of growth rates of tumors: with IL-2 plasmid DNA and DOPE
Text: Compositions comprising HGDs of the invention, plasmid DNA comprising an IL-2 gene, and DOPE efficaciously retarded the growth of tumors in mice. These model-tumor studies involved implanting a tumor into mice, administering a composition of the invention directly into the tumor, and monitoring the growth of tumors in the mice. A protocol for such a procedure is taught in U.S. application Ser. No. 60/039,709, Raiston et al., “IL-2 Gene Expression and Delivery Systems and Uses,” filed Feb. 10, 1997, incorportated herein by reference in its entirety including any figures, tables, and drawings.

cells [2] = test: Cell toxicity by total cellular protein synthesis (Bio-Rad Protein Assay) or cell proliferation (XTT); format: cell-based
Text: Compositions comprising HGDs of the invention, plasmid DNA, and a co-lipid such as DOPE or cholesterol were not appreciably toxic to cells. Toxicity measurements were based upon total cellular protein synthesis (Bio-Rad Protein Assay) or cell proliferation (Cell-Proliferation Kit-XTT, Boehringer Mannheim).

SCCVII tumors = test: CAT reporter gene expression after injection of lipid/DNA complexes into tumors; format: in vivo; settings: complex with CAT DNA plasmid injected into SCCVII tumors; 10% lactose
Description: A variety of HGD/DNA complexes were injected into SCCVII tumors. […] Other lipophilic molecules included DOTMA complexed with cholesterol, DOTIM complexed with DOPE and cholesterol, MMCE complexed with DOPE and cholesterol and DiP-PE, EPMC complexed with DOPE and cholesterol. All complexes comprised 10% lactose.

cells [3] = test: Transfection efficiency: IL-2 expressed by cells given HGD/IL-2 plasmid compositions; format: cell-based; settings: for IL-2 expression by cells: 0.2 μg IL-2 plasmid, cholesterol or DOPE co-lipid, 48 hours
Description: HGDs of the invention formed DNA/HGD complexes that efficiently delivered DNA plasmids to cells. The transfection efficiency was measured after compositions comprising HGDs of the invention, 0.2 μg of DNA plasmids comprising a gene encoding IL-2, and either cholesterol or DOPE as a co-lipid were incubated with cells for 48 hours. The amount of IL-2 expressed by cells administered the compositions was quantified using by an assay disclosed in U.S. application Ser. No. 60/039,709, Raiston et al., “IL-2 Gene Expression and Delivery Systems and Uses,” filed Feb. 10, 1997, incorportated herein by reference in its entirety including any figures, tables, and drawings.

CCCCCCCCCCCCCCCCCCN(CCCCCCCCCCCCCCCCCC)C(=O)CNC(=O)C(CCCNCCCN)NCCCN (stereo not drawn) [DOGS]
transfection efficiency relative to calcium phosphate [1]: more efficiently than calcium phosphate by at least two orders of magnitude

CCCCCCCCCCCCCCCC(=O)OCC(COP(=O)(O)OCCNC(=O)C(CCCNCCCN)NCCCN)OC(=O)CCCCCCCCCCCCCCC (stereo not drawn) [DPPES]
transfection efficiency relative to calcium phosphate [1]: more efficiently than calcium phosphate by at least two orders of magnitude

CCCCCCCC/C=C\CCCCCCCCO[C@@H]1OC(CO)[C@@H](O)C(O)C1N (stereo partly drawn) [MOG, 1-mono-oleyl-glucosamine]
growth of tumors in mice (tumors): significantly reduced the growth of tumors | size of tumors, average (tumors; nine days, untreated 600): less than 400 cubic millimeters | reduction of growth rates of tumors (tumors; after nine days): more than 30% | expression and recovery of total protein, of normal protein levels (cells [2]; MOG composition contains DOPE, compared with LipofectAMINE composition): more than 75% | health of cells compared with LipofectAMINE liposome compositions (cells [2]): healthier | expression of the CAT reporter gene (SCCVII tumors): highest expression of the CAT reporter gene of any of the lipophilic molecule/DNA complexes tested | IL-2 expression compared with DOTMA liposomes (cells [3]; 1:3 charge ratio): as large as the amount of IL-2 expressed by cells administered liposomes comprising an efficient delivery lipid, DOTMA | IL-2 expression by cells (cells [3]; -/+ charge ratio 1:0.5): not significantly expressed | IL-2 expression by cells (cells [3]; -/+ charge ratio 1:3): significantly expressed

CCCCCCCCCCCCCCCCO[C@@H]1OC(CO)[C@@H](O)C(O)C1N (stereo partly drawn) [MPG, 1-mono-palmityl-glucosamine]
growth of tumors in mice (tumors): significantly reduced the growth of tumors | size of tumors, average (tumors; thirteen days, untreated approximately 1600): less than 1200 cubic millimeters | reduction of growth rates of tumors (tumors; after thirteen days): more than 25% | health of cells compared with LipofectAMINE liposome compositions (cells [2]): healthier
